# Tests used:
# Conditions in all cases: 72 h
# Vero E6 [1] = experiment: drug sensitivity score (DSS) for viability; higher = more toxic; extreme values may be limits of the assay
# Caco-2 [2] = experiment: as above
# Calu-3 [3] = experiment: as above
# U2OS [4] = experiment: as above
# HepG2 [5] = experiment: as above
# Vero E6 [6] = experiment: relative viability EC50 (midpoint between 100% and the lowest measured viability); higher = less toxic
# Caco-2 [7] = experiment: as above
# Calu-3 [8] = experiment: as above
# U2OS [9] = experiment: as above
# HepG2 [10] = experiment: as above
# Vero E6 [11] = experiment: cell viability relative to DMSO; higher = less toxic
# Caco-2 [12] = experiment: as above
# Calu-3 [13] = experiment: as above
# U2OS [14] = experiment: as above
# HepG2 [15] = experiment: as above
Structure (SMILES),drug sensitivity score (Vero E6 [1]),drug sensitivity score (Caco-2 [2]),drug sensitivity score (Calu-3 [3]),drug sensitivity score (U2OS [4]),drug sensitivity score (HepG2 [5]),relative viability EC50 (Vero E6 [6]) [µM],relative viability EC50 (Caco-2 [7]) [µM],relative viability EC50 (Calu-3 [8]) [µM],relative viability EC50 (U2OS [9]) [µM],relative viability EC50 (HepG2 [10]) [µM],cell viability (Vero E6 [11]; 1 nM) [%],cell viability (Vero E6 [11]; 10 nM) [%],cell viability (Vero E6 [11]; 100 nM) [%],cell viability (Vero E6 [11]; 1000 nM) [%],cell viability (Vero E6 [11]; 10000 nM) [%],cell viability (Caco-2 [12]; 1 nM) [%],cell viability (Caco-2 [12]; 10 nM) [%],cell viability (Caco-2 [12]; 100 nM) [%],cell viability (Caco-2 [12]; 1000 nM) [%],cell viability (Caco-2 [12]; 10000 nM) [%],cell viability (Calu-3 [13]; 1 nM) [%],cell viability (Calu-3 [13]; 10 nM) [%],cell viability (Calu-3 [13]; 100 nM) [%],cell viability (Calu-3 [13]; 1000 nM) [%],cell viability (Calu-3 [13]; 10000 nM) [%],cell viability (U2OS [14]; 1 nM) [%],cell viability (U2OS [14]; 10 nM) [%],cell viability (U2OS [14]; 100 nM) [%],cell viability (U2OS [14]; 1000 nM) [%],cell viability (U2OS [14]; 10000 nM) [%],cell viability (HepG2 [15]; 1 nM) [%],cell viability (HepG2 [15]; 10 nM) [%],cell viability (HepG2 [15]; 100 nM) [%],cell viability (HepG2 [15]; 1000 nM) [%],cell viability (HepG2 [15]; 10000 nM) [%]
Nc1ncnc2c1C(=O)N(c1ccc([C@H]3CC[C@H](CC(=O)O)CC3)cc1)CCO2,0,0,0,0,0,> 10,> 10,> 10,> 10,> 10,98,103,93.7,107,107,100,90.6,95.3,98.1,104,107,99.7,109,105,110,104,99.6,109,102,97.5,91.2,101,95.3,117,92.3
Oc1ccc(/C=C/c2cc(O)cc(O)c2)cc1 [resveratrol],0,0,0.1,0,0,> 10,> 10,> 10,> 10,> 10,97.5,97.3,94.9,100,98.6,93.3,91.6,95.8,99.3,90.1,106,103,94.8,93.7,87.2,97.7,95,96.9,106,106,107,116,108,97.9,104
C[C@H](NC[C@H](O)CP(=O)(O)CC1CCCCC1)c1ccc(Cl)c(Cl)c1,0,0,0,0,0,> 10,> 10,> 10,> 10,> 10,107,101,104,98.7,104,96.1,92.1,93.9,99.5,91.4,76.5,104,95.2,102,91.7,94.6,102,94.2,101,99.8,103,97.6,99.3,98.6,96.8
CC(C)(CCCCCC(O)CCCCCC(C)(C)C(=O)O)C(=O)O [bempedoic-acid],0,0,0,0,0,> 10,> 10,> 10,> 10,> 10,106,104,98,100,98,98.5,95.6,96.8,96.1,95,90.2,92.3,87.2,92.1,92.6,97.6,97.2,97.7,100,100,102,98.2,107,98.2,102
CC(CCc1ccc(O)cc1)NCCc1ccc(O)c(O)c1 (stereo not given) [dobutamine],0,0,0,0,0,> 10,> 10,> 10,> 10,> 10,106,103,97.1,98.5,103,106,99.2,99.3,95,104,90.2,79.6,92.8,96.9,105,101,96.6,97.7,102,98,106,110,93.1,96.7,93.3
COc1ccc(C(=O)NCc2cccnc2)cc1C(=O)NCc1cccnc1 [picotamide],0,0,0,0,0,> 10,> 10,> 10,> 10,> 10,99.7,101,109,98.7,103,101,87.9,87,120,98.6,97.3,97.8,103,102,111,97.9,95,92.8,101,105,102,99.5,120,119,97
Cc1cc(-c2ncc(CC(=O)Nc3ccc(-c4cnccn4)cn3)cc2C)ccn1 [LGK-974],0,1.8,0.8,0,3.7,> 10,> 10,> 10,> 10,2.77,93,96.6,90.7,93.4,107,97.1,96.6,89.2,91.2,75.2,93.6,97,84.2,90.3,87.8,97.4,96.8,92.7,93.4,91.4,95,99.7,97.9,96.9,39.6

# Reference: the supplement of paper PMC13380429
